Measurements from PMC11201061, “Mechanistic Study of Antimicrobial Effectiveness of Cyclic Amphipathic Peptide [R4W4] against Methicillin-Resistant Staphylococcus aureus Clinical Isolates” (Antibiotics, 2024).
In brackets after ≈: the same amount, converted by molar mass. Counter-ions that a name gives are not always drawn. Like-named read-outs stand apart in the source and are kept apart here. Where a SMILES comes first, the peptide text is derived from it.

Assays:
B. subtilis 21332 = assay: microbe, parasite or virus in culture; assay type: cell-based, Bacillus subtilis; details: for MBC/MIC: B. subtilis ATCC 21332
Protocol: (§1) To determine whether the antibacterial activity of [R4W4] is bacteriostatic or bactericidal against clinical isolates of multidrug-resistant bacterial isolates, MIC and MBC were determined using the microbroth dilution method. Bacteriostatic activity was defined as a ratio of the MBC/MIC greater than four and bactericidal activity as MBC/MIC ratio ≤ 4 [33]. We added aliquots of test samples (256 μg/mL concentration of [R4W4] or vancomycin as a control prepared in TSB) to the first well of microplates. MHB media was added to the remaining wells. Two-fold serial dilutions were performed, starting with the highest drug concentration in well 1, and the dilution process continued. A bacterial aliquot of 1/150 dilution was prepared with a 0.5 McFarland standard solution from an overnight culture of the tested bacteria isolate. Bacteria were added to the microplate and placed into wells with the drug dilutions. The microplates were incubated overnight for 24 h at 37 °C. [R4W4] was synthesized and purified, as reported earlier.

C. difficile 9689 = assay: microbe, parasite or virus in culture; assay type: cell-based, Clostridioides difficile; details: for MBC/MIC: C. difficile ATCC 9689, stool isolate
Protocol: as §1

MRSA LAC = assay: microbe, parasite or virus in culture; assay type: cell-based, Staphylococcus aureus; details: for MIC: Staphylococcus aureus, MRSA
Protocol: The effects of cations on the antimicrobial activity of [R4W4] were determined against MRSA using vancomycin as a control. The bacteria aliquots were treated with MHB media containing the final concentration of sodium chloride (NaCl) (150, 75, 37.5, and 18.75 mM), calcium chloride (CaCl2) (8, 4, 2, and 1 mM), and ferric chloride (FeCl3) (1, 4, and 8 µM) in 96 well microplates. The MIC of [R4W4] and vancomycin were determined to determine whether there were changes in the MIC values when treated with different salt concentrations.

MRSA USA300 [1] = assay: Membrane depolarization assay with DisC3(5); assay type: cell-based, Staphylococcus aureus
Protocol: Buffer A (5 mM HEPE and 5 mM glucose) and Buffer B (5 mM HEPE, 5 mM glucose, and 0.2 mM EDTA) solutions were prepared and filtered using 0.2 μm filters. Bacteria strains (MRSA and E. coli) from a −80 °C freezer were inoculated on an agar plate overnight. Two to three colonies of each bacteria strain were inoculated in 8 mL Cation-Adjusted Muller-Hinton Broth (CAMHB) and allowed to grow overnight. The overnight grown MRSA or E. coli bacteria was diluted with a fresh CAMHB (1:100) and incubated at 37 °C for 5 h with shaking at 220 rpm. The resulting bacteria cells at the growth phase were centrifuged at 3700× g at 4 °C for 10 min. The bacteria pellets were washed three times with buffer A and then resuspended in buffer A to an OD600nm of 0.05.
On the other hand, E. coli was resuspended in buffer B to an OD600nm of 0.05 to facilitate fluorescence dye DSC5 uptake. Then, 20 mL of each bacteria suspension was mixed with 10 μL of 100 μM dye in a dark place for 45 min. After incubation, potassium chloride was added to the two bacteria suspensions to a final concentration. […] The fluorescence intensity was measured at excitation and emission wavelengths of 622 nm and 670 nm, respectively.

MRSA USA300 [2] = assay: microbe, parasite or virus in culture; details: for MIC: Staphylococcus aureus
Protocol: The interaction of [R4W4], melittin, and vancomycin with LTA in the presence of MRSA was determined using a microbroth dilution assay. Two-fold serial dilution was used to achieve a 100 μL final concentration of the antibacterial agents in a 96 microplate well. A 360 μL S. aureus LTA (Sigma Aldrich stock 5 mg/mL) was added to 17.64 mL MHB containing MRSA (5 x 10^5 CFU/mL) to achieve the final concentration of S. aureus LTA 100 μg/mL. Then, 100 μL aliquots of MHB (MRSA (5 × 10^5 CFU/mL) and 100 μg/mL S. aureus LTA) were added to the 96 microtiter wells containing the antibacterial agents. The microplate was incubated overnight at 37 °C to obtain the MICs. Controls were bacteria grown in the presence of LTA alone and in MHB alone.

[3] = tested on: Enterococcus faecium (VRE); assay type: cell-based; details: urine isolate
Protocol: as §1

[4] = tested on: bacterial isolates (nine MRSA, B. subtilis, C. difficile, VRE); assay type: cell-based; details: for bacteriostatic or bactericidal (Pankey's definition, MBC/MIC ≤ 4 bactericidal): all tested bacterial isolates; for MBC increase over MIC values: all the strains tested
Protocol: as §1

MRSA USA300 [5] = assay: Checkered board synergy assay with gentamicin; assay type: cell-based, Staphylococcus aureus
Protocol: An amount of 100 µL of [R4W4] peptide test solution at a final concentration of 512 µg/mL was added to each well A-G column 1 in plate A using a multi-channel pipette. A 50 µL MH Broth was added to micro-plate well A-G columns 2–9. Using a multi-channel pipette, a two-fold serial dilution was performed by removing 50 µL solution from column 1 and was added to column 2 with thorough mixing. The micro-pipette was discarded after each transfer. The last portion after column 9 was discarded. In another microplate, 100 µL MHB was added to well B-G columns 1–11 using a multi-channel pipette. A 200 µL gentamicin test solution 512 µg/mL was added to row A, columns 1–11. A two-fold serial dilution was performed by removing 100 µL from rows A to B. The last portion was discarded. Using eight multi-channel pipettes, 50 µL of gentamicin test solution was transferred in the ordinate column A-G row 1 to the first microplate. The plate was incubated at 37 °C for 18–24 h. The fractional inhibitory concentration (FIC) of the antibacterial agents and the fractional inhibitory concentration index (FICI) of the two antibacterial agents were determined to evaluate the synergistic interaction. The FICI was interpreted as follows: FICI ≤ 0.5, synergy; 0.5 < FICI ≤ 1, partial synergy; 1 ≤ FICI < 4, additive effect or indifference; 4 ≤ FICI antagonism and calculated from the mean values from multiple experiments.

[6] = 25% fresh human serum in RPMI buffer, 37 °C, peptide 100 µg/mL, 20 h; LC-MS; three independent experiments
Protocol: Fresh human serum (4 mL) was centrifuged at 12,500× g for 15 min at 4 °C to remove the lipids. A 25% human serum sample was prepared by adding 375 µL of the human serum supernatant to 1125 µL of RPMI buffer. […] The test sample was incubated in a water bath at 37 °C until a predetermined time interval (0, 1, 2, 4, 6, 8.5, 12, and 20 h). At the time intervals, a 150 µL aliquot test sample was added to a 300 µL cocktail solution [ethanol/formic acid (98:2 v/v) mixture] to cease the reaction. The test samples of aliquots were stored on dry ice for 20 min and then centrifuged at 17,200× g for 20 min. For LC-MS analysis, 150 µL supernatant aliquot test samples were stored at −20 °C [54].
A 20 μL aliquot of each sample was analyzed using an Xterra MS C18 column (3.9 × 150 mm, 5 μm, Waters, MA, USA), Nexera XR, and Prominence Shimadzu LC-20AD XR systems (Shimadzu Corporation, Kyoto, Japan) coupled with Shimadzu LC-MS-2020 mass spectrometer (Shimadzu, OR, USA). A two-component LC system consisted of mobile phase A (0.1% formic acid and 10% acetonitrile in water) and mobile phase B (0.1% formic acid and 100% acetonitrile). The flow rate was set at 1.0 mL/min. The Xterra MS C18 column at 40 °C was allowed to equilibrate with 95% mobile phase A. Peptides were loaded to the column and washed for 5 min with 95% mobile Phase A. Analytes were separated using a binary gradient of 0–95% mobile Phase B for 25 min. […] MS was conducted in multiple reaction monitoring and positive electrospray ionization mode. Fourteen concentrations of [R4W4] prepared by two-fold dilution of 200 μg/mL to 0.39 μg/mL were used to prepare calibration curves. The calibration curves were plotted using weighted (1/×2) least-squares linear regression analysis of peptide mass spectra area under the curve (AUC) versus concentration.

in vitro = details: human, 100% human plasma
Protocol: At the end of incubation at each of the time points, acetonitrile was added to the incubation mixture, followed by centrifugation. Samples were analyzed by HPLC-MS/MS, and peak areas were recorded for each analyte. The area of precursor compound remaining after each time point relative to the amount remaining at time zero, expressed as percent, is calculated. Subsequently, the half-life (T1/2) is estimated from the slope of the initial linear range of the logarithmic curve of the compound remaining (%) versus time, assuming first-order kinetics. The plasma stability experiment was performed at Eurofins Inc. (San Diego, CA, USA) [56].

SMILES: CN[C@H](CC(C)C)C(=O)N[C@H]1C(=O)N[C@@H](CC(N)=O)C(=O)N[C@H]2C(=O)N[C@H]3C(=O)N[C@H](C(=O)N[C@H](C(=O)O)c4cc(O)cc(O)c4-c4cc3ccc4O)[C@H](O)c3ccc(c(Cl)c3)Oc3cc2cc(c3O[C@@H]2O[C@H](CO)[C@@H](O)[C@H](O)[C@H]2O[C@H]2C[C@](C)(N)[C@H](O)[C@H](C)O2)Oc2ccc(cc2Cl)[C@H]1O [Vancomycin, Vancomycin Hydrochloride, reference compound]
- MBC/MIC (B. subtilis 21332): 2
- MBC (B. subtilis 21332; Bacillus subtilis, ATCC21332): 0.5 mg/L
- MIC (B. subtilis 21332; Bacillus subtilis, ATCC21332, 24 h): 0.25 mg/L
- MBC/MIC (C. difficile 9689): 2
- MBC (C. difficile 9689; Clostridioides difficile, ATCC9689): 1 mg/L
- MIC (C. difficile 9689; Clostridioides difficile, ATCC9689, 24 h): 0.5 mg/L
- MIC (MRSA LAC; read-out: MIC in the presence of calcium chloride): 0.75 mg/L
- MIC (MRSA LAC; read-out: MIC in the presence of ferric chloride): 0.625 to 1.25 mg/L
- MIC (MRSA LAC; read-out: MIC in the presence of sodium chloride): 1 to 2 mg/L
- MIC (MRSA LAC; read-out: MIC under normal physiological conditions): 1 mg/L
- DisC3(5) fluorescence versus control (MRSA USA300 [1]; controls at 100 µg/mL): no significant difference
- MIC (MRSA USA300 [2]; read-out: MIC in the absence of LTA): 2 mg/L
- MIC (MRSA USA300 [2]; read-out: MIC in the presence of LTA): 2 mg/L
- MIC ([3]; microbroth dilution, 24 h, 37 °C, averages of triplicates of three different experiments, N/A = not active): not active
- bacteriostatic or bactericidal (Pankey's definition, MBC/MIC ≤ 4 bactericidal) [4]: bactericidal
- MBC increase over MIC values [4]: 2–4 fold

SMILES: N=C(N)NCCC[C@@H]1NC(=O)[C@H](CCCNC(=N)N)NC(=O)[C@H](CCCNC(=N)N)NC(=O)[C@H](Cc2c[nH]c3ccccc23)NC(=O)[C@H](Cc2c[nH]c3ccccc23)NC(=O)[C@H](Cc2c[nH]c3ccccc23)NC(=O)[C@H](Cc2c[nH]c3ccccc23)NC(=O)[C@H](CCCNC(=N)N)NC1=O [[R4W4]] (cyclo(RRRRWWWW))
- MBC (B. subtilis 21332; 21332, 24 h): 8 mg/L (≈ 5.84 µM)
- MIC (B. subtilis 21332; 21332, 24 h): 4 mg/L (≈ 2.92 µM)
- MBC/MIC (B. subtilis 21332): 2
- MBC (C. difficile 9689; 9689, 24 h): 4 mg/L (≈ 2.92 µM)
- MIC (C. difficile 9689; 9689, 24 h): 2 mg/L (≈ 1.46 µM)
- MBC/MIC (C. difficile 9689): 2
- MIC(A+B) ([R4W4] in combination with gentamicin) (MRSA USA300 [5]; MRSA USA300, checkered board): 1.5 mg/L
- MICA ([R4W4] alone) (MRSA USA300 [5]; MRSA USA300, checkered board, 37 °C, 18–24 h, mean values from multiple experiments): 6 µg/mL
- FICA (MRSA USA300 [5]; MRSA USA300, fractional inhibitory concentration of [R4W4]): 0.25
- reduction in MIC value in combination (MRSA USA300 [5]; MRSA, [R4W4] + gentamicin combination versus alone): 4 fold
- MIC in the presence of sodium chloride (MRSA LAC; LAC): 6 to 8 mg/L
- MIC under normal physiological conditions (MRSA LAC; MRSA LAC, MHB without added salt): 4 µg/mL
- MIC in the presence of ferric chloride (MRSA LAC; MRSA LAC, FeCl3 1, 2, 4 and 8 μM): increases proportionally with the concentration of ferric chloride
- DisC3(5) fluorescence (membrane depolarization) (MRSA USA300 [1]; [R4W4] at 2 × MIC): fluorescence decreases below that of vancomycin and control
- DisC3(5) fluorescence (membrane depolarization) (MRSA USA300 [1]; [R4W4] at 16 × MIC): enhanced fluorescence signal that surpassed that of nisin
- MIC in the presence of LTA (MRSA USA300 [2]; MRSA USA300, 100 μg/mL S. aureus LTA in MHB, overnight 37 °C, duplicate): 8 mg/L
- MIC in the absence of LTA (MRSA USA300 [2]; MRSA USA300, MHB, overnight 37 °C, duplicate): 8 mg/L
- MBC/MIC [3]: 4
- MIC range, MRSA clinical isolates from the blood ([4]; 24 h): 2 to 4 mg/L
- MIC range, MRSA clinical isolates from the lungs ([4]; 24 h): 16 to 32 mg/L
- bacteriostatic or bactericidal (Pankey's definition, MBC/MIC ≤ 4 bactericidal) [4]: bactericidal
- MBC increase over MIC values [4]: 2–4 fold
- remaining [R4W4] (intact peptide) [6]: over 70%
- half-life at 1 µM (in vitro): ~1.43 h
